# Earlier results as cited in patent US20260258363A1, “THERAPY” (PLASTICELL LTD, priority 2023, published 2026).
# System: bone marrow derived CD34+ cells
# Conditions: pre-treatment of cells in vitro
compound,measurement,value
NCCCNCCS [WR1065],enhancement of formation of CFU-GEMM and BFU-E colonies,≤ 38 fold
